Values quoted from earlier work, collected in PubChem BioAssay AID1259409 (Chemical Carcinogenesis Research Information System (CCRIS), 2018).

System: rodent chemically induced tumor inhibition, incidence and multiplicity
Assay: CCRIS tumor inhibitor studies

SMILES	tumour outcome (control, treated, inhibition, significance) (Carcinogen: 7,12-DIMETHYLBENZ[A]ANTHRACENE, 57-97-6, Dose [Inhibitor]: 0, 0.044 NMOL IN 0.2 ML ACETONE APPLIED TO BACK ONCE 5 MIN PRIOR TO CARCINOGEN DOSE (STUDY DURATION: 26 WK), Route [Inhibitor]: DERMAL, Species: MOUSE, Strain/Sex: SENCAR/FEMALE, Target Tissue: Type of Lesion: SKIN: PAPILLOMA, Dose [Carcinogen]: 10 NMOL IN 0.2 ML ACETONE APPLIED TO BACK ONCE.)	tumour outcome (control, treated, inhibition, significance) (Carcinogen: 7,12-DIMETHYLBENZ[A]ANTHRACENE, 57-97-6, Dose [Inhibitor]: 0, 0.44 NMOL IN 0.2 ML ACETONE APPLIED TO BACK ONCE 5 MIN PRIOR TO CARCINOGEN DOSE (STUDY DURATION: 20 WK), Route [Inhibitor]: DERMAL, Species: MOUSE, Strain/Sex: SENCAR/FEMALE, Target Tissue: Type of Lesion: SKIN: PAPILLOMA, Dose [Carcinogen]: 10 NMOL IN 0.2 ML ACETONE APPLIED TO BACK ONCE.)	outcome (Carcinogen: 7,12-DIMETHYLBENZ[A]ANTHRACENE, 57-97-6, Dose [Inhibitor]: 0, 0.44 NMOL IN 0.2 ML ACETONE APPLIED TO BACK ONCE 5 MIN PRIOR TO CARCINOGEN DOSE (STUDY DURATION: 26 WK), Route [Inhibitor]: DERMAL, Species: MOUSE, Strain/Sex: SENCAR/FEMALE, Target Tissue: Type of Lesion: SKIN: PAPILLOMA, Dose [Carcinogen]: 10 NMOL IN 0.2 ML ACETONE APPLIED TO BACK ONCE.)	tumour outcome (control, treated, inhibition, significance) (Carcinogen: 7,12-DIMETHYLBENZ[A]ANTHRACENE, 57-97-6, Dose [Inhibitor]: 0, 4.4 NMOL IN 0.2 ML ACETONE APPLIED TO BACK ONCE 5 MIN PRIOR TO CARCINOGEN DOSE (STUDY DURATION: 26 WK), Route [Inhibitor]: DERMAL, Species: MOUSE, Strain/Sex: SENCAR/FEMALE, Target Tissue: Type of Lesion: SKIN: PAPILLOMA, Dose [Carcinogen]: 10 NMOL IN 0.2 ML ACETONE APPLIED TO BACK ONCE.)	tumour outcome (control, treated, inhibition, significance) (Carcinogen: 7,12-DIMETHYLBENZ[A]ANTHRACENE, 57-97-6, Dose [Inhibitor]: 0, 22 NMOL IN 0.2 ML ACETONE APPLIED TO BACK ONCE 5 MIN PRIOR TO CARCINOGEN DOSE (STUDY DURATION: 26 WK), Route [Inhibitor]: DERMAL, Species: MOUSE, Strain/Sex: SENCAR/FEMALE, Target Tissue: Type of Lesion: SKIN: PAPILLOMA, Dose [Carcinogen]: 10 NMOL IN 0.2 ML ACETONE APPLIED TO BACK ONCE.)	tumour outcome (control, treated, inhibition, significance) (Carcinogen: 7,12-DIMETHYLBENZ[A]ANTHRACENE, 57-97-6, Dose [Inhibitor]: 0, 44 NMOL IN 0.2 ML ACETONE APPLIED TO BACK ONCE 5 MIN PRIOR TO CARCINOGEN DOSE (STUDY DURATION: 26 WK), Route [Inhibitor]: DERMAL, Species: MOUSE, Strain/Sex: SENCAR/FEMALE, Target Tissue: Type of Lesion: SKIN: PAPILLOMA, Dose [Carcinogen]: 10 NMOL IN 0.2 ML ACETONE APPLIED TO BACK ONCE.)	tumour outcome (control, treated, inhibition, significance) (Carcinogen: 7,12-DIMETHYLBENZ[A]ANTHRACENE, 57-97-6, Dose [Inhibitor]: 0, 440 NMOL IN 0.2 ML ACETONE APPLIED TO BACK ONCE 5 MIN PRIOR TO CARCINOGEN DOSE (STUDY DURATION: 20 WK), Route [Inhibitor]: DERMAL, Species: MOUSE, Strain/Sex: SENCAR/FEMALE, Target Tissue: Type of Lesion: SKIN: PAPILLOMA, Dose [Carcinogen]: 10 NMOL IN 0.2 ML ACETONE APPLIED TO BACK ONCE.)	tumour outcome (control, treated, inhibition, significance) (Carcinogen: 7,12-DIMETHYLBENZ[A]ANTHRACENE, 57-97-6, Dose [Inhibitor]: 0, 4400 NMOL IN 0.2 ML ACETONE APPLIED TO BACK ONCE., Route [Inhibitor]: DERMAL, Species: MOUSE, Strain/Sex: SENCAR/FEMALE, Target Tissue: Type of Lesion: SKIN: PAPILLOMA, Dose [Carcinogen]: 10 NMOL IN 0.2 ML ACETONE APPLIED TO BACK ONCE.)	tumour outcome (control, treated, inhibition, significance) (Carcinogen: BENZO[A]PYRENE, 50-32-8, Dose [Inhibitor]: 0, 22 NMOL IN 0.2 ML ACETONE APPLIED TO BACK ONCE 5 MIN PRIOR TO CARCINOGEN DOSE (STUDY DURATION: 26 WK), Route [Inhibitor]: DERMAL, Species: MOUSE, Strain/Sex: SENCAR/FEMALE, Target Tissue: Type of Lesion: SKIN: PAPILLOMA, Dose [Carcinogen]: 200 NMOL IN 0.2 ML ACETONE APPLIED TO BACK ONCE.)	tumour outcome (control, treated, inhibition, significance) (Carcinogen: BENZO[A]PYRENE, 50-32-8, Dose [Inhibitor]: 0, 44 NMOL IN 0.2 ML ACETONE APPLIED TO BACK ONCE 5 MIN PRIOR TO CARCINOGEN DOSE (STUDY DURATION: 26 WK), Route [Inhibitor]: DERMAL, Species: MOUSE, Strain/Sex: SENCAR/FEMALE, Target Tissue: Type of Lesion: SKIN: PAPILLOMA, Dose [Carcinogen]: 200 NMOL IN 0.2 ML ACETONE APPLIED TO BACK ONCE.)	tumour outcome (control, treated, inhibition, significance) (Carcinogen: BENZO[A]PYRENE, 50-32-8, Dose [Inhibitor]: 0, 440 NMOL IN 0.2 ML ACETONE APPLIED TO BACK ONCE 5 MIN PRIOR TO CARCINOGEN DOSE (STUDY DURATION: 26 WK), Route [Inhibitor]: DERMAL, Species: MOUSE, Strain/Sex: SENCAR/FEMALE, Target Tissue: Type of Lesion: SKIN: PAPILLOMA, Dose [Carcinogen]: 200 NMOL IN 0.2 ML ACETONE APPLIED TO BACK ONCE.)	tumour outcome (control, treated, inhibition, significance) (Carcinogen: BENZO[A]PYRENE, 50-32-8, Dose [Inhibitor]: 0, 4400 NMOL IN 0.2 ML ACETONE APPLIED TO BACK ONCE 5 MIN PRIOR TO CARCINOGEN DOSE (STUDY DURATION: 20 WK), Route [Inhibitor]: DERMAL, Species: MOUSE, Strain/Sex: SENCAR/FEMALE, Target Tissue: Type of Lesion: SKIN: PAPILLOMA, Dose [Carcinogen]: 200 NMOL IN 0.2 ML ACETONE APPLIED TO BACK ONCE.)	tumour outcome (control, treated, inhibition, significance) (Carcinogen: BENZO[A]PYRENE, 50-32-8, Dose [Inhibitor]: 0, 4400 NMOL IN 0.2 ML ACETONE APPLIED TO BACK ONCE 5 MIN PRIOR TO CARCINOGEN DOSE (STUDY DURATION: 26 WK), Route [Inhibitor]: DERMAL, Species: MOUSE, Strain/Sex: SENCAR/FEMALE, Target Tissue: Type of Lesion: SKIN: PAPILLOMA, Dose [Carcinogen]: 200 NMOL IN 0.2 ML ACETONE APPLIED TO BACK ONCE.)	tumour outcome (control, treated, inhibition, significance) (Carcinogen: BENZO[A]PYRENE, 50-32-8, Dose [Inhibitor]: 0, 22000 NMOL IN 0.2 ML ACETONE APPLIED TO BACK ONCE 5 MIN PRIOR TO CARCINOGEN DOSE (STUDY DURATION: 20 WK), Route [Inhibitor]: DERMAL, Species: MOUSE, Strain/Sex: SENCAR/FEMALE, Target Tissue: Type of Lesion: SKIN: PAPILLOMA, Dose [Carcinogen]: 200 NMOL IN 0.2 ML ACETONE APPLIED TO BACK ONCE.)	tumour outcome (control, treated, inhibition, significance) (Carcinogen: BENZO[A]PYRENE, 50-32-8, Dose [Inhibitor]: 0, 44000 NMOL IN 0.2 ML ACETONE APPLIED TO BACK ONCE 5 MIN PRIOR TO CARCINOGEN DOSE (STUDY DURATION: 20 WK), Route [Inhibitor]: DERMAL, Species: MOUSE, Strain/Sex: SENCAR/FEMALE, Target Tissue: Type of Lesion: SKIN: PAPILLOMA, Dose [Carcinogen]: 200 NMOL IN 0.2 ML ACETONE APPLIED TO BACK ONCE.)	tumour outcome (control, treated, inhibition, significance) (Carcinogen: N-METHYL-N'-NITRO-N-NITROSOGUANIDINE, 70-25-7, Dose [Inhibitor]: 0, 4400 NMOL IN 0.2 ML ACETONE APPLIED TO BACK ONCE 5 MIN PRIOR TO CARCINOGEN DOSE (STUDY DURATION: 20 WK), Route [Inhibitor]: DERMAL, Species: MOUSE, Strain/Sex: SENCAR/FEMALE, Target Tissue: Type of Lesion: SKIN: PAPILLOMA, Dose [Carcinogen]: 2500 NMOL IN 0.2 ML ACETONE APPLIED TO BACK ONCE.)	tumour outcome (control, treated, inhibition, significance) (Carcinogen: AZOXYMETHANE [25843-45-2], Dose [Inhibitor]: 200 PPM IN DIET FOR 4 WK BEGINNING 1 WK PRIOR TO FIRST CARCINOGEN DOSE (STUDY DURATION: 35 WK), Route [Inhibitor]: ORAL, Species: RAT, Strain/Sex: F344/MALE, Target Tissue: Type of Lesion: COLON: ADENOMA, Dose [Carcinogen]: 15 MG/KG BW 1X/WK FOR 3 WK (STUDY DURATION: 35 WK), Promoter: NONE)	tumour outcome (control, treated, inhibition, significance) (Carcinogen: AZOXYMETHANE [25843-45-2], Dose [Inhibitor]: 200 PPM IN DIET FOR 4 WK BEGINNING 1 WK PRIOR TO FIRST CARCINOGEN DOSE (STUDY DURATION: 35 WK), Route [Inhibitor]: ORAL, Species: RAT, Strain/Sex: F344/MALE, Target Tissue: Type of Lesion: COLON: CARCINOMA, Dose [Carcinogen]: 15 MG/KG BW 1X/WK FOR 3 WK (STUDY DURATION: 35 WK), Promoter: NONE)	tumour outcome (control, treated, inhibition, significance) (Carcinogen: AZOXYMETHANE [25843-45-2], Dose [Inhibitor]: 200 PPM IN DIET FOR 4 WK BEGINNING 1 WK PRIOR TO FIRST CARCINOGEN DOSE (STUDY DURATION: 35 WK), Route [Inhibitor]: ORAL, Species: RAT, Strain/Sex: F344/MALE, Target Tissue: Type of Lesion: SMALL INTESTINE: CARCINOMA, Dose [Carcinogen]: 15 MG/KG BW 1X/WK FOR 3 WK (STUDY DURATION: 35 WK), Promoter: NONE)
C#Cc1ccc2ccc3cccc4ccc1c2c34	100%, 93%, 7%, not calculated	100%, 50%, 50%, not calculated	100%, 100%, 0, not calculated	100%, 83%, 17%, not calculated	100%, 60%, 40%, not calculated	100%, 35%, 65%, not calculated	100%, 24%, 76%, not calculated	100%, 0%, 100%, not calculated	100%, 91%, 9%, not calculated	100%, 96%, 4%, not calculated	100%, 74%, 26%, not calculated	75%, 59%, 21%, not calculated	100%, 71%, 29%, not calculated	75%, 35%, 53%, not calculated	75%, 22%, 71%, not calculated	78%, 78%, 0%, not significant	–	–	–
O=C1C=CC(=O)c2c(O)cccc21	–	–	–	–	–	–	–	–	–	–	–	–	–	–	–	–	6/28 (21%), 4/30 (13%), 38%, not significant	8/28 (29%), 11/30 (37%), -28%, not significant	7/28 (25%), 2/30 (7%), 72%, p<0.05
